Measurements taken from patent US5760230A, “4, 4'-bridged bis-2, 4-diaminoquinazolines” (Bayer Aktiengesellschaft, priority 1996, dated 1998).

Key:
[1] = test system: potassium channels (PC12 cells); assay: Non-radioactive Rb^+ efflux assay for the identification of potassium channel modulators in PC12 cells; assay type: cell-based; details: Rattus norvegicus, PC-12, 10 min, test concentration of 10 μM, 50 mM KCl stimulation
Experimental: 2) Non-radioactive Rb^+ efflux assay for the identification of potassium channel modulators
The potassium in PC12 cells is exchanged with rubidium, which is not present in the cells. This exchange is performed by incubating the cells over a period of 4 h in a physiological buffer containing 5.4 mM RbCl without KCl. This rubidium subsequently serves as a tracer for potassium.
The cells laden with Rb^+ in this way are washed three times and then stimulated by depolarization with 50 mM KCl to open potassium channels (10 min), causing Rb^+ to flow out of the cells into the supernatant according to the concentration gradient.
The rubidium contents in the cell supernatant and in the residual cells after they have been lysed with 1% Triton X-100 are then determined by means of atomic absorption spectroscopy. The relative proportion of rubidium in the cell supernatant (=Rb^+ efflux) is used as a measure of the potassium channel activity.
The effect of substances on the channel activity is measured by co-incubating, the test substance over the ten-minute stimulation period and determining its effect on the Rb^+ efflux in the manner described above.

[2] = molecular target: apamine binding sites (bovine cerebral membrane, hippocampus); assay: Binding of ^125 I-apamine to bovine cerebral membrane; details: 30 pM ^125 I-apamine, calf hippocampus membranes, pH 7.4, 60 min on ice
Experimental: The compounds according to the invention are ligands for apamine-sensitive potassium channels. This can be shown by studying the affinity for apamine binding sites, e.g. in bovine cerebral membranes.
1) Binding of ^125 I-apamine to bovine cerebral membrane
Calf brains were obtained from the local abattoir. The hippocampus was prepared on ice and a membrane suspension was made up by homogenization twice in buffer (100 mM Tris-HCl, KCl 5 mM, pH 7.4) and centrifugation at 43,000×g. In a total volume of 500 μl, the incubation mixture contained 200 μg of membrane protein, 30 pM ^125 I-apamine and test substances in the concentration range 1×10^-9 to 1×10^-4 M. The non-specific binding of ^125 I-apamine was determined in the presence of 1×10^-7 M unlabelled apamine.
After preincubation for 30 min at room temperature (test substances and membrane homogenate), the samples were placed on ice for 10 min before the radioligand was added. The main incubation time was 60 min on ice. When the reaction time had elapsed, an excess of ice-cooled incubation buffer was added to each sample and the mixture was filtered with suction through cellulose acetate/nitrate membrane filters. The amount of bound ^125 I-apamine was measured with a gamma counter.

Row | SMILES | inhibition at 10 µM [1] | Ki [2]
1 | CCN(CC)c1nc(NCCCNc2nc(N(CC)CC)nc3ccccc23)c2ccccc2n1 [Example 3] | 81% | 
2 | CCN(CC)c1nc(NCC2CCCC(CNc3nc(N(CC)CC)nc4ccccc34)C2)c2ccccc2n1 (mixture of isomers) [Example 1, 1,3-Bis-[(2-diethylamino-4-quinazolyl)-aminomethyl]-cyclohexane (cis/trans isomeric mixture)] | 80% | 160 nM
3 | CCN(CC)c1nc(NCCCCCNc2nc(N(CC)CC)nc3ccccc23)c2ccccc2n1 [Example 2] |  | 8 nM
